In patent US9884801B2, “Compounds from antrodia camphorata, method for preparing the same and use thereof” (ONENESS BIOTECH CO.,LTD., priority 2014, dated 2018):
Values after ≈ are worked out from the molar mass of the structure shown. Where two headings read alike, the source gives them in different places.

What was measured:
Format in all cases: cell-based
Huh-7 (Liver) = test: SRB anti-proliferation assay, Huh-7; details: Homo sapiens; for IC50: Huh-7, 48 hours; for inhibition at 0.3 µg/mL: Huh-7, in 0.3 μg/ml
Experimental: (§1) Various cell lines (5×10^3 cells/well) were sub-cultured onto 96-well plates and starved with serum-free medium for 48 h. Then cells were incubated in medium with 10% FBS in the absence or presence of various concentrations of AC006, AC007, AC009, and AC012 (0.1, 0.3, 1, 3, 10, and 30 μg/ml) for 48 hours. After treatment, the medium was discarded firstly. […]. In order to fix the adherent cells, 100 μl of trichloroacetic acid (10% (w/v)) were adding to each well and incubating at 4° C. for 1 hour. Then the plates were then washed with deionized water and dried in the air. Each well were added with 50 μl of Sulforhodamine B (SRB) solution (0.4% w/v in 1% acetic acid) and incubated for 5 min at room temperature. To remove unbound SRB in the plates, the plates were washed with 1% acetic acid and then air dried. The residual bound SRB was solubilized with 100 μl of 10 mM Tris base buffer (pH 10.5), and then read using a micro titer plate reader at 495 nm.

U251 (Brain, Glioma) = test: SRB anti-proliferation assay, U251; details: Homo sapiens, U-251; for IC50: U251, 48 hours
Experimental: as §1

B16F10 (Melanoma) = test: SRB anti-proliferation assay, B16F10; details: Mus musculus, B16-F10; B16F10, 48 hours
Experimental: as §1

LN-229 (Brain, Glioma) = test: SRB anti-proliferation assay, LN-229; details: Homo sapiens; for IC50: LN-229, 48 hours
Experimental: as §1

PC3 (Prostate) = test: SRB anti-proliferation assay, PC3; details: PC3, 48 hours
Experimental: as §1

U87 (Brain, Glioma) = test: SRB anti-proliferation assay, U87; details: for IC50: U87, 48 hours
Experimental: as §1

A549 (Lung) = test: SRB anti-proliferation assay, A549; details: Homo sapiens; for IC50: A549, 48 hours; for inhibition at 10 µg/mL: A549, in 10 μg/ml
Experimental: as §1

Sk-Hep-1 (Liver) = test: SRB anti-proliferation assay, Sk-Hep-1; details: Homo sapiens, SK-HEP1; Sk-Hep-1, 48 hours
Experimental: as §1

RKO (Colorectal) = test: SRB anti-proliferation assay, RKO; details: for inhibition at 10 µg/mL: in 10 μg/ml
Experimental: as §1

SW-480 (Colon rectal) = test: SRB anti-proliferation assay, SW-480; details: for IC50: SW-480, 48 hours; for inhibition at 10 µg/mL: SW480, SW-480, in 10 μg/ml
Experimental: as §1

DLD-1 (Colorectal) = test: SRB anti-proliferation assay, DLD-1; details: for inhibition at 10 µg/mL: DLD-1, in 10 μg/ml
Experimental: as §1

HCT-116 (Colon rectal) = test: SRB anti-proliferation assay, HCT-116; details: Homo sapiens; for IC50: HCT-116, 48 hours; for inhibition at 0.3 µg/mL: HCT-116, in 0.3 μg/ml
Experimental: as §1

4T-1 (Breast) = test: SRB anti-proliferation assay, 4T-1; details: 4T-1, 48 hours
Experimental: as §1

HT-29 (Colon) = test: SRB anti-proliferation assay, HT-29; details: Homo sapiens; HT-29, 48 hours
Experimental: as §1

NST (Colon) = test: SRB anti-proliferation assay, NST
Experimental: as §1

COLO205 (Colon) = test: SRB anti-proliferation assay, COLO205; details: Homo sapiens, COLO 205; COLO205, 48 hours
Experimental: as §1

EPCs in presence of VEGF = test: Matrigel capillary tube formation assay; details: 1 μg/ml, EPC, VEGF 20 ng/ml, 16 hr; read-out: inhibit tube formation
Experimental: Matrigel was added to 15-well-plates (ibidi) in a total volume of 10 μl in each well. Plates were stood at 37° C. for 30 min to form a gel layer. After gel formation, EPCs (5×10^3 cells) treated with or without AC012 (0.1, 0.3, 1 μg/ml) in presence of VEGF (20 ng/ml) were applied to each well, and plates were incubated for at 37° C. 16 hr with 5% CO2. After incubation, the inverted contrast phase microscope (Nikon, Japan) was used for subject observation.

[1] = tested on: Endothelial progenitor cell (EPCs); test: SRB assay, EPC cell proliferation; details: 48 h, read-out: inhibitory concentrations of 50% EPC cell proliferation (IC50)
Experimental: as §1, with “Endothelial progenitor” for “Various”, “(EPCs, 5×10^3” for “lines (5×10^3”, “of” for “of AC006, AC007, AC009, and”, “10” for “10,”, “h.” for “hours. After treatment, the medium was discarded firstly.”

[2] = Homo sapiens, SW480, 48 h, read-out: IC50
[3] = Homo sapiens, DLD-1, 48 h, read-out: IC50

| IC50 (Huh-7 (Liver)) | IC50 (B16F10 (Melanoma)) | IC50 (LN-229 (Brain, Glioma)) | IC50 (PC3 (Prostate)) | IC50 (A549 (Lung)) | IC50 (SW-480 (Colon rectal); [2]) | IC50 (DLD-1 (Colorectal); [3]) | IC50 (HCT-116 (Colon rectal)) | SMILES | inhibition at 10 µg/mL (A549 (Lung)) | inhibition at 0.3 µg/mL (Huh-7 (Liver)) | IC50 (RKO (Colorectal); 48 h, read-out: IC50) | inhibition at 10 µg/mL (RKO (Colorectal)) | inhibition at 10 µg/mL (SW-480 (Colon rectal); Homo sapiens) | inhibition at 10 µg/mL (DLD-1 (Colorectal); Homo sapiens) | inhibition at 0.3 µg/mL (HCT-116 (Colon rectal)) | further results |
| --- | --- | --- | --- | --- | --- | --- | --- | --- | --- | --- | --- | --- | --- | --- | --- | --- |
| 0.72 µg/mL (≈ 1.6 µM) | 28.7 µg/mL (≈ 64 µM) | > 30 µg/mL | 19.7 µg/mL (≈ 43.9 µM) | > 10 µg/mL | – | – | – | COC1=C(OC)[C@H](OC(C)=O)[C@H](C/C=C(\C)CC/C=C(\C)C[C@H](O)C=C(C)C)[C@@H](C)C1=O [AC006] | 12.2% | – | – | – | – | – | – | IC50 (U251 (Brain, Glioma)): > 30 µg/mL; inhibition at 30 µg/mL (U251 (Brain, Glioma); U251, in 30 μg/ml): 22.6%; inhibition at 30 µg/mL (LN-229 (Brain, Glioma); LN-229, in 30 μg/ml): 22.6%; IC50 (U87 (Brain, Glioma)): > 30 µg/mL; inhibition at 30 µg/mL (U87 (Brain, Glioma); U87, in 30 μg/ml): 11.3%; IC50 (Sk-Hep-1 (Liver)): 26.8 µg/mL (≈ 59.7 µM) |
| < 0.3 µg/mL | – | – | – | 1.69 µg/mL (≈ 4.16 µM) | > 10 µg/mL | > 10 µg/mL | < 0.3 µg/mL | COC1=C(OC)[C@H](O)[C@H](C/C=C(\C)CC/C=C(\C)C/C=C/C(C)(C)O)[C@@H](C)C1=O [AC007-H1] | – | 85.2% | > 10 µg/mL | 33% | 18.2% | 16.1% | 59.5% | – |
| 0.88 µg/mL (≈ 1.96 µM) | 23.4 µg/mL (≈ 52.3 µM) | > 25 µg/mL | 22.1 µg/mL (≈ 49.2 µM) | 3.57 µg/mL (≈ 7.96 µM) | > 10 µg/mL | 19.7 µg/mL (≈ 44 µM) | 0.93 µg/mL (≈ 2.07 µM) | COC1=C(OC)[C@H](OC(C)=O)[C@H](C/C=C(\C)CC/C=C(\C)C/C=C/C(C)(C)O)[C@@H](C)C1=O [AC007] | – | – | 17.6 µg/mL (≈ 39.2 µM) | 29.5% | 21.5% | 25.6% | – | IC50 (RKO (Colorectal); 48 hours): > 10 µg/mL; inhibition at 25 µg/mL (LN-229 (Brain, Glioma); LN-229, in 25 μg/ml): 19.1%; IC50 (4T-1 (Breast)): 24.8 µg/mL (≈ 55.3 µM); IC50 (DLD-1 (Colorectal); DLD-1, 48 hours): > 10 µg/mL |
| < 0.3 µg/mL | – | – | – | > 10 µg/mL | > 10 µg/mL | > 10 µg/mL | < 0.3 µg/mL | COC1=C(OC)[C@H](O)[C@H](C/C=C(\C)CC/C=C(\C)CC/C=C(\C)CO)[C@@H](C)C1=O [AC009-H1] | 40.8% | 90.6% | > 10 µg/mL | 8.79% | 4.01% | 11% | 54.4% | – |
| < 0.3 µg/mL | 22.4 µg/mL (≈ 50 µM) | 19.5 µg/mL (≈ 43.5 µM) | 15 µg/mL (≈ 33.4 µM) | 8.08 µg/mL (≈ 18 µM) | 18.6 µg/mL (≈ 41.4 µM) | 14.6 µg/mL (≈ 32.6 µM) | 2.56 µg/mL (≈ 5.71 µM) | COC1=C(OC)[C@H](OC(C)=O)[C@H](C/C=C(\C)CC/C=C(\C)CC/C=C(\C)CO)[C@@H](C)C1=O [AC009] | – | 88.2% | 15.9 µg/mL (≈ 35.5 µM) | 33.2% | 7.98% | 8.75% | – | IC50 (RKO (Colorectal); 48 hours): > 10 µg/mL; IC50 (HT-29 (Colon)): 33.2 µg/mL (≈ 74.1 µM); IC50 (SW-480 (Colon rectal)): > 10 µg/mL; IC50 (NST (Colon); 48 hours): > 25 µg/mL; inhibition at 25 µg/mL (NST (Colon); in 25 μg/ml): 44.4%; IC50 (DLD-1 (Colorectal); DLD-1, 48 hours): > 10 µg/mL; IC50 (COLO205 (Colon)): 2.45 µg/mL (≈ 5.46 µM) |
| – | – | – | – | – | > 10 µg/mL | > 10 µg/mL | 2.43 µg/mL (≈ 5.59 µM) | COC1=C(OC)[C@H](OC(C)=O)[C@H](C/C=C(\C)CC/C=C(\C)C/C=C/C(C)(C)O)CC1=O [AC011] | – | – | > 10 µg/mL | 24.1% | 31.6% | 7.57% | – | – |
| < 0.3 µg/mL | – | – | – | 6.4 µg/mL (≈ 15.7 µM) | > 10 µg/mL | > 10 µg/mL | < 0.3 µg/mL | COC1=C(OC)[C@H](O)[C@H](C/C=C(\C)CC/C=C(\C)CCCC(C)CO)[C@@H](C)C1=O (some centres unmarked) [AC012-H1] | – | 91.2% | > 10 µg/mL | 17.5% | 14.8% | 11.8% | 52.7% | – |
| – | – | – | – | – | > 10 µg/mL | > 10 µg/mL | > 10 µg/mL | COC1C(=O)C(C)[C@@H](C/C=C(\C)CC/C=C(\C)CCCC(C)CO)[C@@H](O)C1(OC)OC (some centres unmarked) [AC012-H2] | – | – | > 10 µg/mL | 31.6% | 5.66% | 8.31% | – | inhibition at 10 µg/mL (HCT-116 (Colon rectal); HCT-116, in 10 μg/ml): 40.3% |
| < 0.3 µg/mL | 9.16 µg/mL (≈ 20.3 µM) | 19.4 µg/mL (≈ 43.2 µM) | 11.4 µg/mL (≈ 25.2 µM) | > 10 µg/mL | > 10 µg/mL | > 10 µg/mL | 2.29 µg/mL (≈ 5.08 µM) | COC1=C(OC)[C@H](OC(C)=O)[C@H](C/C=C(\C)CC/C=C(\C)CCCC(C)CO)[C@@H](C)C1=O (some centres unmarked) [AC012] | 49.5% | 78.9% | > 10 µg/mL | 34.7% | 9.05% | 20.2% | – | inhibition at 1 µg/mL (EPCs in presence of VEGF): 31.9%; IC50 (U251 (Brain, Glioma)): 22.7 µg/mL (≈ 50.4 µM); IC50 [1]: 29 µg/mL (≈ 64.4 µM); IC50 (U87 (Brain, Glioma)): 18.6 µg/mL (≈ 41.3 µM); IC50 (Sk-Hep-1 (Liver)): 8.27 µg/mL (≈ 18.4 µM) |
